{"source": "patent US20050042283A1", "about": "“Histamine and CCK2/gastrin receptor blockade in the treatment of acid-peptic disease and cancer” (UNIVERSITY OF MASSACHUSETTS, priority 2003, published 2005)", "key": {"[1]": {"tested_on": "COOH-terminally amidated gastrin", "experiment": "Gastrin radioimmunoassay (serum amidated gastrin)", "type": "in vivo, mice", "conditions": "6 months treatment", "method": "Plasma gastrin levels (COOH-terminally amidated gastrin) were determined by radioimmunoassay using rabbit antiserum L2 that reacts similarly with G17 and […]. Real-time PCR Assay of Helicobacter felis infection in mouse stomachs and RT-PCR assay of growth factors and cytokine expression profiles H.felis DNA present in infected mouse stomachs was quantified using a modification of a previously described realtime PCR assay that accurately quantified H. pylori (Ge, Z. et al., 2001). Two primers (forward: 5′-[…] -3′ (SEQ ID NO:1); reverse: 5′-[…]-3′(SEQ ID NO:2) were designed to hybridize within the conserved region of the single copy H. felis flaB gene locus. No products were amplified from DNA isolated from H. pylori, H. mustelae, or H. bizzozeroni, confirming the specificity of these oligonucleotides for H. felis. DNA from plate-grown H. felis and from mouse gastric corpus was prepared using a high pure PCR kit (Roche Molecular Biochemicals, Indianapolis, IN). Real-time PCR was performed using SmartCycler (Cepheid, Calif.) and Quantitect SYBR Green PCR kit (QIAGEN Inc., Valencia, Calif.) following the manufacturer's instructions. Briefly, the PCR assay was performed under the following conditions: 95° C. for 15 minutes followed by 45 cycles of 95° C. for 15 seconds, 55° C. for 30 seconds and 72° C. for 30 seconds. […]"}, "[2]": {"tested_on": "IFN-gamma", "experiment": "Real-time RT-PCR of cytokine expression: IFN-gamma", "type": "in vivo", "conditions": "6 months, versus untreated mice", "method": "(§1) Real-time RT-PCR assay of growth factors and cytokine expression profiles Total RNAs were extracted from a sample of whole stomach from each animal with Trizol (Invitrogen, Calif.) and five micrograms of total RNA were used for first strand cDNA synthesis using Superscript II cDNA amplification System (Invitrogen, Calif.) following manufacturer's instructions. Real-time PCR was performed as above using RT-PCR primers for each gene as listed below. All primers were designed using Lasergene ver5.0 software (DNASTAR inc., Madison, Wis.). Results were calculated by minus delta delta threshold cycle (-ΔΔCt) method (Livak, K. J. et al., 2001). Briefly, the threshold cycle Ct1 of each sample reaction was deducted from the threshold cycle Ct2 of GAPDH reaction for normalization, and then deducted from the threshold cycle Ct3 of calibration control (45 cycles in this experiment), i.e., the final result was represented by the formula; Ct3-(Ct1-Ct2). […]"}, "[3]": {"tested_on": "IL-4", "experiment": "Real-time RT-PCR of cytokine expression: IL-4", "type": "in vivo", "conditions": "6 months; versus untreated mice; listed as loxtidine alone", "method": "as §1"}, "[4]": {"tested_on": "ECL cell", "conditions": "cited from earlier work"}, "[5]": {"tested_on": "H. felis-infected INS-GAS mice", "experiment": "Stomach wet-weight and gross stomach size", "type": "in vivo", "text": "The control group (A) included INS-GAS mice that were infected with H. felis but untreated, resulting in a total of 4 groups of mice (A-D). The INS-GAS (male) mice entered the study at 6-8 weeks of age, and were housed in 4 cages. There were 21 mice in each group, seven of which were euthanized after 3 months and 14 of which were euthanized after 6-7 months. The doses of medication are shown. Loxtidine was given in the drinking water while YF476 was given by subcutaneous injection once a week.\nFIG. 4: Closed stomachs from INS-GAS/H. felis mice. Gross photos of representative stomachs from each of the four groups of 6 month H. felis-infected INS-GAS mice are shown. Mice were euthanized by CO2 inhalation and the stomachs were removed by […] of the esophagus and duodenum.\nMice in group III were treated orally with the histamine H2 receptor antagonist loxtidine (in drinking water) at a dose of 0.5 g/L, while group IV mice received both drugs. For the 3 months drug study of inhibitory effects on maximal acid secretion, gastric atrophy, hyperplasia and dysplasia, 8 mice were prepared for each group. For the 6 months drug study of inhibitory effects on gastric carcinogenesis, 17 mice were prepared for each group."}}, "note": "“And” between values parts separate entries of the source, which are not always exact repeats. Equal values may be shown once. “Also recorded” adds a separate entry of the source."}
{"substance": "1-methyl-5-((3-(3-(1-piperidinylmethyl)phenoxy)propyl)amino)-1H-1,2,4-triazole-3-ethanol [Loxtidine]", "values": [{"measurement": "Serum amidated gastrin levels compared with untreated mice", "setting": "[1]", "result": "no significant, but in a higher tendency"}, {"measurement": "Serum amidated gastrin levels compared with untreated mice", "setting": "[1]; listed as loxtidine alone", "result": "tendency toward higher gastrins that was not significant"}, {"measurement": "IFN-gamma expression level", "setting": "[2]; listed as Loxtidine alone", "result": "significantly lower level"}, {"measurement": "IFN-gamma expression level", "setting": "[2]; listed as loxtidine alone", "result": "significantly down-regulated"}, {"measurement": "IL-4 expression level", "setting": "[3]", "result": "large and significant increase; also recorded: significantly higher level"}, {"measurement": "Tumor induction in rats", "setting": "[4]; rat, in vivo", "result": "induction of ECLomas"}, {"measurement": "Duration of administration after which ECL cell hyperplasia was seen", "setting": "[4]; rats, Poynter et al.", "result": 39, "unit": "days"}, {"measurement": "Gross stomach size", "setting": "[5]; 6 month H. felis-infected mice", "result": "significant reduction in apparent size"}, {"measurement": "Stomach weight after treatment", "setting": "[5]; untreated 1831 / ~1830 mg", "result": "~400 mg and ~800 mg"}]}
